The subject of data set [1] is HSF1 and MYC target genes in OVCAR8. Put plainly: RT-qPCR of HSF1 and MYC target genes after entinostat. Format: cell-based. The conditions noted are these: OVCAR8, 24 hrs. Here is the method: FIG. 6B is a bar graph depicting mRNA relative fold change in OVCAR8 cells treated with entinostat at the indicated doses for 24 hours. Total RNA from the cells was subjected to RT-qPCR or the indicated transcripts.
Results of this screen indicated 45 of the top 54 hits were compounds that targeted histone deacetylases (HDACs). (Table 1). To test the effect of HDAC inhibitors on cell lines having dual copy number gain in both MYC and HSF1, we treated OVCAR8 (positive for MYC-HSF1 amplification) for 24 hrs with an HDAC inhibitor, etinostat. Total RNA from treated cells was subjected to RTqPCR. To conduct the RTqPCR, RNA was extracted from cells using an RNA isolation kit with DNAse treatment (Zymo). RNA was subjected to reverse transcription using RT Master Mix (Applied Biosystems). qPCR was performed with SYBR Green Master Mix (Applied Biosystems) using a QuantStudio3 (Applied Biosystems). Experiments were performed in biological triplicate and analyzed using the […].

Data set [2] has as its system MYC and HSF1 protein in OVCAR8 cells. Put plainly: Immunoblot of MYC and HSF1 after entinostat. Format: cell-based. As to conditions: OVCAR8, 24 hours. As for the experimental part: FIG. 6C and FIG. 6D are immunoblots of OVCAR8 cells treated with entinostat at the indicated doses for 24 hours. Total protein from the cells was subjected to immunoblotting with the indicated antibodies.
Immunoblotting and co-immunoprecipitation was performed as described above. Antibodies for immunoblotting and immunoprecipitation included MYC (CST), HSF1 (CST), GAPDH (CST). […] Through the innovative method of screening potential therapeutics against cells having dual amplification of MYC and HSF1, Applicant was able to identify potential therapeutic targets, HDAC inhibitors, and therapeutics having increased efficacy against these cancer cells.
For orientation: In western blotting, separated proteins are transferred to a membrane and probed.

For data set [3], the system named is ovarian cancer cells with (OVCAR8, OVCAR4) or without (OVSAHO, CAOV3) MYC-HSF1 amplification. Put plainly: Epigenetic inhibitor drug screen, cell viability (Cell Titer Blue). The class given is cell-based. The conditions noted are these: 10 uM, 48 hrs, average relative cell viability (vs 1% DMSO) of non-amplified cells (OVSAHO, CAOV3) minus that of MYC-HSF1 amplified cells (OVCAR8, OVCAR4), positive = greater response in amplified cells, 10 µM.

For data set [4], the system named is OVCAR8 cells in the flank of nude mice. The data set can be described thus: OVCAR8 flank tumor growth in nude mice. Format: in vivo. As to conditions: 15 or 20 mg/kg twice per week for five weeks. Here is the method: (§1) FIG. 5D represents OVCAR8 cells (5e5) grown in the flank of nude mice until a volume between 50-100 mm^3 were achieved. Mice were then randomized to receive either vehicle, 15mg/kg, or 20 mg/kg volasertib twice per week. Tumor volume was measured with calipers (FIG. 5D) and body weight was measured (FIG. 5E) throughout the study.
(§2) Lastly, we evaluated the efficacy of the PLK1 inhibitor, volasertib, on tumor growth in vivo. OVCAR8 cells (5e5) were injected into the flank of nude mice and tumors were allowed to develop until 50-100 mm^3. Mice then received either vehicle (PBS) or 15 or 20 mg/kg volasertib twice per week for five weeks. Body weight and tumor volume were measured twice per week.

Data set [5] in a line: Body weight of tumor-bearing nude mice. Format: in vivo. The conditions noted are these: 15 or 20 mg/kg twice per week for five weeks. As for the experimental part:
as §1, §2

For a further data set, the system named is ovarian cancer patients. As to conditions: cited from earlier work.
Data set [6] deals with cell lines without dual amplification (OVSAHO, CAOV3, PEO1, OVCAR3). The data set can be described thus: Volasertib IC50, cell viability, non-amplified cell lines. Format: cell-based. The conditions noted are these: average of OVSAHO, read-out: IC50 in non-amplified cells. Here is the method: (§3) PLK1 is an active therapeutic target with several compounds targeting this kinase inPLK1 inhibitor that has shown promise as an effective cancer therapy in early phase clinical trials (Rudolph et al. Clin Cancer Res 2009; 15:3094-102;Pujade-Lauraine et al. J Clin Oncol 2016;34:706-13; Xie et al. Am J Cancer Res 2015;5:3548-59). […] To assess whether a PLK1 inhibitor has specificity for MYC-HSFIdual-amplified ovarian cancer cells, the IC50 for volasertib was assessed in cell lines with dual amplification (OVCAR8, SNU119, OVCAR4, and COV362) and in cell lines without dual amplification (OVSAHO, CAOV3, PEO1, OVCAR3).
(§4) The effectiveness of volasertib on MYC-HSF1 dual amplified cancer cells was also analyzed in several cell growth models. […] Cell viability assays were performed with Cell Titer Blue (Promega) as we previously described (Carpenter et al. Oncotarget 2017;8:73947-63). Clonogenic growth assays were performed by seeding <1000 cells into 6-well plates and staining with crystal violet after 7 days of growth. Colonies were quantified using FIJI.

For data set [7], the system named is cell lines with dual amplification (OVCAR8, SNU119, OVCAR4, and COV362). The data set can be described thus: Volasertib IC50, cell viability, MYC-HSF1 dual amplified cell lines. Format: cell-based. As for the experimental part: as §3, §4
Data set [8] relates to OVCAR8 (MYC-HSF1 co-amplified) cells. Put plainly: Tumor spheroid growth, co-amplified cells. Format: cell-based. The conditions noted are these: OVCAR8, 7 days. Here is the method:
FIG. 5B and FIG. 5C represent OVCAR8 (MYC-HSF1 co-amplified) and CAOV3 (non-amplified) cells subjected to tumor spheroid growth in the presence or absence of volasertib at the indicated doses. Spheroids were quantified by manual counting. The impact volasertib on spheroid growth in the two different cell lines is shown photographically (FIG. 5B) and graphically (FIG. 5C).
Ovarian cancer cells (1000-2000) were seeded into 24-well ultra-low attachment plates (Corning) and grown in serum-free spheroid media as we previously described (Wang et al., Mol Cancer Ther 2021). Spheroids were grown in the presence or absence of volasertib for 7 days. Spheroids were quantified by manual counting.

Data set [9] relates to MYC and HSF1 protein in OVCAR8 cells. Put plainly: Immunoblot time course of MYC and HSF1 protein after volasertib. The class given is cell-based. The conditions noted are these: OVCAR8, volasertib 1 nM, 0 to 18 hours. Here is the method:
(§5) Considering PLK1 phosphorylation previously indicated affects the protein stability of MYC and HSF1, it was tested whether volasertib affects MYC or HSF1 protein levels. A time course study was performed where samples were treated with volasertib for time ranges of 0 to 18hours. […] Similarly, the effect of volasertib was tested on the activity of HSF1 using an HSE luciferase reporter.
Immunoblotting and Immunoprecipitation: Immunoblotting and co-immunoprecipitation was performed as we have previously described (Lu et al., bioRxiv 2020:2020.08.31.275909). Antibodies for immunoblotting and immunoprecipitation included MYC (CST), HSF1 (CST), β-actin (CST), GAPDH (CST), FLAG (Sigma), and p-HSF1 (S326) (Abcam).

Data set [10] concerns HSF1 activity in OVCAR8 cells. Put plainly: HSE luciferase reporter assay. Format: cell-based. As to conditions: OVCAR8, volasertib 1 nM, increasing time of treatment. As for the experimental part: FIG. 4E is a bar graph representing OVCAR8 cells subjected to HSE luciferase assay with treatment of volasertib (1 nM) for the indicated times.
as §5
Luciferase Reporter Assays: Luciferase reporter assays were performed as we previously described (Lu et al. bioRxiv 2020:2020.08.31.275909). The HSF1 activity reporter contains multiple heat shock element (HSE) motifs driving firefly luciferase. Experiments were performed with co-transfection of a constitutively active renilla reporter. Analysis was completed by dividing firefly activity by renilla activity.
A general note: In a reporter assay the amount or activity of a reporter protein is the signal.

Data set [11] deals with MYC-HSF1 dual amplified cells (OVCAR8, OVCAR4, SNU119). Put plainly: Clonogenic growth assay. The class given is cell-based. The conditions noted are these: 7 days, crystal violet. As for the experimental part: FIG. 5A depicts bar graphs showing clonogenic growth observed for OVCAR8, OVCAR4 and SNU119 cell lines subjected to the indicated dose of volasertib (BI-6727). Control cells were subjected to 1% DMSO instead of volasertib. Colonies were grown for 7 days prior to staining with crystal violet and quantification was completed with FIJI software.
as §4

Where [12] appears, read: single agent, ovarian cancer patients.

pIC50: −log10 of the molar value. Where “and” joins values, the source holds several entries; their conditions need not be identical. Equal entries are not always repeated.

As to `Nc1ccccc1NC(=O)c1ccc(CNC(=O)OCc2cccnc2)cc1` [Entinostat], the “levels of HSF1 and MYC target genes (mRNA)” value in data set [1] was “significantly reduced levels of HSF1 and MYC target genes”. In data set [2], the “protein levels of MYC and HSF1” value is “reduced protein levels of both MYC and HSF1”. For the same compound, the “Non Amp - AMP (POC) 10 uM” value in data set [3] (listed as Entinostat (MS-275, SNDX-275)) turned out to be 52.31 POC; in data set [3] (listed as MS-275 (entinostat)), 65.06 POC.

Take `CC[C@@H]1C(=O)N(C)c2cnc(Nc3ccc(C(=O)N[C@H]4CC[C@H](N5CCN(CC6CC6)CC5)CC4)cc3OC)nc2N1C(C)C` [volasertib]: the “tumor growth in vivo” value in data set [4] is reported as “strongly regress tumor growth”. For the same compound, the body weight result in data set [5] was “no change in body weight”. The “toxicity and safety for use in humans” value with ovarian cancer patients (early phase clinical trials) is “favorable toxicity and safety”. In the data set on ovarian cancer patients (setting [12]), the “24-week disease control rate” value is listed as 30% and the “patients with partial responses” value was 13%. Also, in the data set on ovarian cancer patients (single agent, none in patients receiving cytotoxic chemotherapy), the “patients with progression-free survival for more than one year” value is on record as 11%. The pIC50 – broadly, the negative decadic logarithm of the IC50, by convention in mol/L – in data set [6] was 5.11. Also, the pIC50 in [7] (average of OVCAR8, SNU119, OVCAR4, COV362, read-out: IC50 for volasertib in MYC-HSF1 dual amplified cells) is 7.48. For the same compound, in data set [7] (enhanced efficacy in dual amplified ovarian cancer cells), the “fold difference of IC50, non-amplified vs MYC-HSF1 dual amplified cells” value is > 200 fold and 200 fold. Besides, in data set [8], the “spheroid growth, MYC-HSF1 dual amplified cells” value is recorded as “inhibit spheroid growth”. In addition, in data set [9], the “MYC and HSF1 protein levels” value was “loss of MYC and HSF1 protein after 3hours of volasertib exposure”. Moreover, the “HSF1 activity (HSE luciferase reporter)” value in data set [10] was “increasing inhibition of HSF1 activity”. Also, the clonogenic growth entry in data set [11] is “strong inhibition of clonogenic growth”.

The values above are taken from patent US20250011881A1, “MYC-HSF1 DUAL AMPLIFICATION AS A BIOMARKER FOR CANCER TREATMENT” (The Trustees of Indiana University, priority 2023, published 2025).
